What was measured:
Test in all cases: biochemical
Recombinant human MMP-13 = molecular target: T1, Recombinant human MMP-13 (Homo sapiens, UniProt P45452); conditions: fluorogenic MCA-peptide substrate, pH 7.5, room temperature; read-out: MMP-13 IC50
T1 construct: made in house; host or cells: baculovirus / insect cells
Procedure: (§1) Recombinant human MMP-1, MMP-2, MMP-9, MMP-13, and were used in this assay. These enzymes were prepared in the Assignee's es following usual laboratory procedures. Specifics for preparing and e enzymes can be found in the scientific literature describing these See, e.g., Enzyme Nomenclature (Academic Press, San Diego, Calif., d the citations therein).
The expressed proenzyme was first purified over a heparin agarose column, and then over a chelating zinc chloride column. The proenzyme was then activated by APMA for use in the assay.
(§2) The enzyme substrate was a methoxycoumarin-containing polypeptide having the following sequence:
(§3) MCA-ProLeuGlyLeuDpaAlaArgNH2
(§4) Here, “MCA” is methoxycoumarin and “Dpa” is 3-(2,4-dinitrophenyl)-L-2,3-diaminopropionyl alanine.
(§5) These solutions were then compared to a control (which contained equal amount of DMSO/buffer solution, but no hydroxamate compound) using Microfluor™ White Plates (Dynatech, Chantilly, Va.). Specifically, The MMPs were activated with APMA or trypsin. […] The control likewise was incubated at room temperature in separate plates with the MMP and 4 uM of the MMP substrate. […] Inhibition was measured as a reduction in fluorescent intensity as a function of inhibitor concentration using a Perkin Elmer (Norwalk, Conn.) L550 plate reader. The IC50's were then calculated from these measurements.

Recombinant human MMP-2 = molecular target: T2, Recombinant human MMP-2 (Homo sapiens, UniProt P08253); conditions: fluorogenic MCA-peptide substrate, pH 7.5, room temperature; read-out: MMP-2 IC50
T2 construct: made in house
T2 sequence (P08253 110-660): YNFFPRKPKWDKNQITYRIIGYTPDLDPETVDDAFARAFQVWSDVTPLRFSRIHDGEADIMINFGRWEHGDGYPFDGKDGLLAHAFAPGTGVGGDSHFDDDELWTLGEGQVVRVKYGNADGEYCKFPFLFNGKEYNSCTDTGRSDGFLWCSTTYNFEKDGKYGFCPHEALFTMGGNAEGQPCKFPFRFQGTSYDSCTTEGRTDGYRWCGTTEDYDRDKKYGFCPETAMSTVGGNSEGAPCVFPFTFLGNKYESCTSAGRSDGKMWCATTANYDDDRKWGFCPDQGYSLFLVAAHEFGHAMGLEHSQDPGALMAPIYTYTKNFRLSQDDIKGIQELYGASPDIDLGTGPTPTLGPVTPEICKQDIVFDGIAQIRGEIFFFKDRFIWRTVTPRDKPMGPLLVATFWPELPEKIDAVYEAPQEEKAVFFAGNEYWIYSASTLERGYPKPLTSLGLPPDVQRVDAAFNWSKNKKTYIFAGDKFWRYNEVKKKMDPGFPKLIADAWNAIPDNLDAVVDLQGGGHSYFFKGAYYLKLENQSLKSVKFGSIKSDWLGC
Procedure: as §1
The MMP-2 was obtained from MMP-2 expressing transfected cells provided by Dr. Gregory Goldberg of Washington University.
as §2, §3, §4, §5

Recombinant human MMP-1 = molecular target: T3, Recombinant human MMP-1 (Homo sapiens, UniProt P03956); conditions: fluorogenic MCA-peptide substrate, pH 7.5, room temperature
T3 construct: made in house; host or cells: transfected HT-1080 cells
T3 sequence (P03956 100-469): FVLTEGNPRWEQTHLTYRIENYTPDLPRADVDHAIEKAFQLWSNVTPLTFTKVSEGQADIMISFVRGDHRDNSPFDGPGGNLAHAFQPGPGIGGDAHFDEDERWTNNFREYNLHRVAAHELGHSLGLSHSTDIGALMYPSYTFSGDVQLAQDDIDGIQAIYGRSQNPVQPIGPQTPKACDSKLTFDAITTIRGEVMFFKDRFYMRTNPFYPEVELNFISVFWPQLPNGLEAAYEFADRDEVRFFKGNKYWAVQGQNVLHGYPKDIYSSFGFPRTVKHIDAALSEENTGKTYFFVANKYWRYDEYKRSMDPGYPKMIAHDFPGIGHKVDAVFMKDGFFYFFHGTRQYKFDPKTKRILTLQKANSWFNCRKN
Procedure: as §1
The MMP-1 was obtained from MMP-1 expressing transfected HT-1080 cells provided by Dr. Harold Welgus of Washington University in St. Louis, Mo. The MMP-1 was activated using 4-aminophenylmercuric acetate (APMA), and then purified over a hydroxamic acid column.
as §2, §3, §4, §5

SMILES	IC50 (Recombinant human MMP-13)	IC50 (Recombinant human MMP-2)	IC50 (Recombinant human MMP-1)
CCc1ccc(C(=O)C2CCN(c3ccc(S(=O)(=O)C4(C(=O)NO)CCN(CC)CC4)cc3)CC2)cc1 [Example 222]	1 nM	197 nM	> 10000 nM
COCCc1sc(CC(=O)C2CCN(c3ccc(S(=O)(=O)C4(C(=O)NO)CCOCC4)cc3)CC2)nc1C [Example 374]	5.6 nM	970 nM	> 10000 nM
COc1ccc(C(=O)C2CCN(c3ccc(S(=O)(=O)C4(C(=O)NO)CCN(CC5CC5)CC4)cc3)CC2)cc1 [Example 188]	2 nM	250 nM	> 10000 nM
COCCN1CCC(C(=O)NO)(S(=O)(=O)c2ccc(N3CCC(C(=O)c4ccc(CC(C)C)cn4)CC3)cc2)CC1 [Example 253]	1.7 nM	38.7 nM	> 10000 nM
COCCN1CCC(C(=O)NO)(S(=O)(=O)c2ccc(N3CCC(c4ccc(Cl)cc4)CC3)cc2)CC1 [Example 271]	0.8 nM	1.7 nM	> 10000 nM
COCCN1CCC(C(=O)NO)(S(=O)(=O)c2ccc(N3CCC(C(=O)c4ccc(CC5CCC5)cc4)CC3)cc2)CC1 [Example 201]	0.2 nM	6320 nM	> 10000 nM
O=C(NO)C1(S(=O)(=O)c2ccc(N3CCC(c4ccc(Cl)cc4)CC3)cc2)CCN(C2CC2)CC1 [Example 270]	1.1 nM	1.9 nM	> 10000 nM
CCN1CCC(C(=O)NO)(S(=O)(=O)c2ccc(N3CCC(C(=O)c4ccc(CC5CC5)cc4)CC3)cc2)CC1 [Example 254]	1.3 nM	132 nM	> 10000 nM
COCCN1CCC(C(=O)NO)(S(=O)(=O)c2ccc(N3CCC(C(=O)c4cccc(Cl)c4)CC3)cc2)CC1 [Example 186]	3.5 nM	94.4 nM	> 10000 nM
COCCN1CCC(C(=O)NO)(S(=O)(=O)c2ccc(N3CCC(C(=O)c4ccc(CC5CCCC5)cc4)CC3)cc2)CC1 [Example 202]	0.4 nM	1020 nM	> 10000 nM
CCc1ccc(C(=O)C2CCN(c3ccc(S(=O)(=O)C4(C(=O)NO)CCN(CCOC)CC4)cc3)CC2)cc1 [Example 212]	0.2 nM	110 nM	> 10000 nM
COCCN1CCC(C(=O)NO)(S(=O)(=O)c2ccc(N3CCC(c4ccc(OC)cc4)CC3)cc2)CC1 [Example 267]	0.4 nM	1.7 nM	> 10000 nM
CCN1CCC(C(=O)NO)(S(=O)(=O)c2ccc(N3CCC(C(=O)c4ccc(N(C)C)cc4)CC3)cc2)CC1 [Example 168]	2.1 nM	2180 nM	> 10000 nM
CC(C)COc1ccc(C(=O)C2CCN(c3ccc(S(=O)(=O)C4(C(=O)NO)CCN(C5CC5)CC4)cc3)CC2)cc1 [Example 216]	1.5 nM	46.4 nM	> 10000 nM
CCc1ccc(C(=O)C2CCN(c3ccc(S(=O)(=O)C4(C(=O)NO)CCN(S(C)(=O)=O)CC4)cc3)CC2)cc1 [Example 220]	1.7 nM	290 nM	> 10000 nM
COc1ccc(C(=O)C2CCN(c3ccc(S(=O)(=O)C4(C(=O)NO)CCN(S(C)(=O)=O)CC4)cc3)CC2)cc1 [Example 206]	1.8 nM	199 nM	> 10000 nM
COCCN1CCC(C(=O)NO)(S(=O)(=O)c2ccc(N3CCC(C(=O)c4ccc(CN(C)C)s4)CC3)cc2)CC1 [Example 223]	2.5 nM	80.4 nM	> 10000 nM
C#CCN1CCC(C(=O)NO)(S(=O)(=O)c2ccc(N3CCC(C(=O)c4cccc(OC)c4)CC3)cc2)CC1 [Example 155]	1.4 nM	43.8 nM	> 10000 nM

SMILES	IC50 (Recombinant human MMP-13)	IC50 (Recombinant human MMP-2)	IC50 (Recombinant human MMP-1)
Cc1ccc(C(=O)C2CCN(c3ccc(S(=O)(=O)C4(C(=O)NO)CCN(S(C)(=O)=O)CC4)cc3)CC2)cc1C [Example 164]	5.4 nM	942 nM	> 10000 nM
O=C(NO)C1(S(=O)(=O)c2ccc(N3CCC(Sc4nc5ccccc5s4)CC3)cc2)CCN(C2CC2)CC1 [Example 185]	5.1 nM	87.4 nM	> 10000 nM
Cc1cc(C(=O)C2CCN(c3ccc(S(=O)(=O)C4(C(=O)NO)CCOCC4)cc3)CC2)ccc1OC(C)C [Example 376]	6.4 nM	2190 nM	> 10000 nM
CCN1CCC(C(=O)NO)(S(=O)(=O)c2ccc(N3CCC(C(=O)c4ccc(CCCC(C)C)cc4)CC3)cc2)CC1 [Example 236]	1.5 nM	1850 nM	> 10000 nM
COc1ccc(C2CCN(c3ccc(S(=O)(=O)C4(C(=O)NO)CCN(CC5CC5)CC4)cc3)CC2)cc1 [Example 268]	1.2 nM	5 nM	> 10000 nM
C#CCN1CCC(C(=O)NO)(S(=O)(=O)c2ccc(N3CCC(C(=O)c4ccc5ccccc5c4)CC3)cc2)CC1 [Example 175]	0.7 nM	137 nM	> 10000 nM
COCCN1CCC(C(=O)NO)(S(=O)(=O)c2ccc(N3CCC(C(=O)c4ccc(CCC(C)C)cc4)CC3)cc2)CC1 [Example 246]	1 nM	2710 nM	> 10000 nM
O=C(c1ccc(F)c(F)c1)C1CCN(c2ccc(S(=O)(=O)C3(C(=O)NO)CCOCC3)cc2)CC1 [Example 302]	1.9 nM	35 nM	> 10000 nM
CCCc1ccc(C(=O)C2CCN(c3ccc(S(=O)(=O)C4(C(=O)NO)CCN(CC)CC4)cc3)CC2)cc1 [Example 170]	1.3 nM	134 nM	> 10000 nM
COCCN1CCC(C(=O)NO)(S(=O)(=O)c2ccc(N3CCC(C(=O)c4ccc(Cl)cc4)CC3)cc2)CC1 [Example 119]	1 nM	200 nM	> 10000 nM
Cc1cc(C(=O)C2CCN(c3ccc(S(=O)(=O)C4(C(=O)NO)CCN(S(C)(=O)=O)CC4)cc3)CC2)ccc1Cl [Example 219]	4.9 nM	258 nM	> 10000 nM
O=C(c1ccc(Br)cc1)C1CCN(c2ccc(S(=O)(=O)C3(C(=O)NO)CCOCC3)cc2)CC1 [Example 378]	0.3 nM	28.4 nM	> 10000 nM
C=CCN1CCC(C(=O)NO)(S(=O)(=O)c2ccc(N3CCC(C(=O)c4ccc(OC)cc4)CC3)cc2)CC1 [Example 182]	1.1 nM	115 nM	> 10000 nM
CCN1CCC(C(=O)NO)(S(=O)(=O)c2ccc(N3CCC(C(=O)c4ccc(CCC5CCCC5)cc4)CC3)cc2)CC1 [Example 237]	2.1 nM	1910 nM	> 10000 nM
CCC(C)Cc1ccc(C(=O)C2CCN(c3ccc(S(=O)(=O)C4(C(=O)NO)CCN(CCOC)CC4)cc3)CC2)cc1 (stereo not drawn) [Example 205]	< 0.1 nM	412 nM	> 10000 nM
CCCc1ccc(C(=O)C2CCN(c3ccc(S(=O)(=O)C4(C(=O)NO)CCN(CCOC)CC4)cc3)CC2)cc1 [Example 120]	0.85 nM	126 nM	> 10000 nM
COCCN1CCC(C(=O)NO)(S(=O)(=O)c2ccc(N3CCC(C(=O)c4ccc(CC(C)C)cc4)CC3)cc2)CC1 [Example 218]	0.2 nM	75.7 nM	> 10000 nM
C=CCN1CCC(C(=O)NO)(S(=O)(=O)c2ccc(N3CCC(C(=O)c4ccc5ccccc5c4)CC3)cc2)CC1 [Example 160]	0.4 nM	198 nM	> 10000 nM
